The term pIC50 denotes the negative decadic logarithm of the IC50, by convention in mol/L. In general, IC50 refers to the point on the concentration scale where inhibition reaches its midpoint.

pIC50: −log10 of the molar value. Calls of active or inactive are those of the source.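 The calls were made as follows: active = IC50 under 10 µM in the follow-up dose response; inactive = IC50 10 µM or more, or under 40% single-dose inhibition.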

One assay deals with Tyrosine-protein phosphatase non-receptor type 22 (Homo sapiens) (UniProt Q9Y2R2). The assay is described as follows: PTPN22 enzyme inhibition – biochemical, DiFMUP fluorescence, retest and dose response, confirmation (AID 1253). The note with it: recombinant LYP.
Tyrosine-protein phosphatase non-receptor type 22 (Homo sapiens), sequence (Q9Y2R2 whole entry, looked up): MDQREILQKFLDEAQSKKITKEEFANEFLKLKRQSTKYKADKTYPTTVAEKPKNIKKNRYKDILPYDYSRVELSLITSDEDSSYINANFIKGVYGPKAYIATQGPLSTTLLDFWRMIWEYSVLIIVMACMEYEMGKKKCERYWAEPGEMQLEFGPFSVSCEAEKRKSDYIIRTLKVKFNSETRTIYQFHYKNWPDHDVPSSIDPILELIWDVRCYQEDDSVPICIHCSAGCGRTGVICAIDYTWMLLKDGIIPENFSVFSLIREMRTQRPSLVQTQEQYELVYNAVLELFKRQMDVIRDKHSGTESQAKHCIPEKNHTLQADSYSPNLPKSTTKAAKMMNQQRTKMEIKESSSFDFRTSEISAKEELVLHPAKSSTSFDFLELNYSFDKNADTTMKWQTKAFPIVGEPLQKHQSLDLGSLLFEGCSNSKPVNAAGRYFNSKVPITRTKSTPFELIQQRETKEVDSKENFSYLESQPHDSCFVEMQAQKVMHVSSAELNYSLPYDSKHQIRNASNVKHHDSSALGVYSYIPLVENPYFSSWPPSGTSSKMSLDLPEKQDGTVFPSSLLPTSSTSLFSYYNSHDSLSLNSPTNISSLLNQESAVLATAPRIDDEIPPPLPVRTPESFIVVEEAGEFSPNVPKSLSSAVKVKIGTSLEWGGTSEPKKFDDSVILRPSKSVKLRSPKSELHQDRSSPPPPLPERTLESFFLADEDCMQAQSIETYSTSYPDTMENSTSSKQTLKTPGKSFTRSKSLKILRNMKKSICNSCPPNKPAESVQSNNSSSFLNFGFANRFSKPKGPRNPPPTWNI
Regarding `O=C(O)CCN1C(=O)/C(=C/c2ccc(-c3nc4ccccc4s3)o2)SC1=S`, the pIC50 is 5.84.
As to `CC(C(=O)O)N1C(=O)/C(=C/C=C/c2ccco2)SC1=S` (configuration not stated), the pIC50 was 5.43.
Take `Cc1cc(-c2c(C)[nH]n(-c3ccc(Cl)cc3)c2=O)n[nH]1`: the IC50 is > 10 µM (inactive).

Still in this assay, the particulars now being: recombinant LYP, at 10 µM, active compounds read high.
`NC(=O)C1CCN(C(c2ccccc2Cl)c2nnnn2CC2CCCO2)CC1` (configuration not stated): the inhibition result was “inactive”.
Same read-out and setting: as for `Cc1ccc2c(Cl)cc(Cl)c(OCC(=O)NCc3ccco3)c2n1`, the entry is “inactive”.
The same measure, in the same setting: next, `C=CCNC(=S)NNC(=O)c1cccn(Cc2ccc(Cl)cc2Cl)c1=O`: “inactive”; `S=c1[nH]nc(COc2ccccc2)n1/N=C/C(Cl)=C/c1ccccc1`: “inactive”.
Same read-out and setting: as for `COc1ccc(NC(=O)C2CCCO2)cc1Cl` (configuration not stated), the entry is “inactive”.
Turning to `O=C(c1ccc(Cl)cc1)c1cnc(-c2ccc(Cl)cc2)s1`, the inhibition result was “inactive”.
Turning to `Cc1ccc(CSc2nnc(-c3ccccc3N)c(=O)[nH]2)cc1`, the inhibition entry was “inactive”.
Turning to `O=C(CSc1nnc(-c2ccc(Cl)s2)o1)N1CCCc2ccccc21`, the inhibition result was “inactive”.
For `Clc1ccc(C2=C3CCCCn4c(-c5ccccc5)c[n+](c43)C2)cc1`, the inhibition result was “inactive”.
Still for that read-out and setting: next, `O=C(CCC(=O)OC(C(=O)c1ccccc1)c1ccccc1)Nc1ccccc1` (configuration not stated): “inactive”; `CCN(CC)CCCNC(=O)c1c(O)c2ccccc2n(Cc2ccccc2)c1=O`: “inactive”.
Still for that read-out and setting: as for `CC(C)C(CCNC(=O)CC(Cc1ccccc1)c1ccco1)c1ccco1` (configuration not stated), the entry is “inactive”; as for `CCOc1ccccc1NC(=O)CN(c1ccc(C)cc1)S(=O)(=O)c1c(C)noc1C`, “inactive”; as for `CCOC(=O)c1c(-n2c(C)cc(C=C3C(=O)NC(=S)NC3=O)c2C)sc2c1CCCC2`, “inactive”.
On the same count and under the same terms, as for `CCOC(=O)C1=C(C)OC(N)=C(C#N)C1c1c(C)nn(-c2ccc(C)cc2)c1Cl` (configuration not stated), the entry is “inactive”.
Turning to `CCCC(=O)Nc1ccc2c(c1)nc(CCNC(=O)c1ccccc1)n2C`, the inhibition entry was “inactive”.
Still for that read-out and setting: as for `CCOC(=O)c1c2ccc(OCC(=O)N/N=C/c3ccc(C)cc3)cc2n2ccccc12`, the entry is “inactive”.
For `Cc1ccc2oc3nc(C)c(C(=O)Nc4cccc(C(F)(F)F)c4)cc3c(=O)c2c1`, the inhibition result was “inactive”.
On the same count and under the same terms, as for `COc1ccc(C2C(=O)N(C3CCCCC3)CC(=O)N2C2CCCCC2)cc1` (configuration not stated), the entry is “inactive”; as for `COc1ccccc1OCc1nnc(SCC(=O)NCc2ccco2)n1Cc1ccco1`, “inactive”.
Same read-out and setting: next, `O=C(Cc1cnn(-c2ccccc2)c1)c1ccc(O)c(O)c1O`: “inactive”; `O=C(Nc1ccc2oc(-c3ccc(Cl)c(Cl)c3)nc2c1)c1ncn[nH]1`: “inactive”.
For the compound `Cc1ccccc1Cn1ccc(NC(=O)CCSc2nc(-c3ccco3)cc(C(F)(F)F)n2)n1`, the inhibition result was “inactive”.
Same read-out and setting: next, `Cc1ccc(Cn2c(=N)c(C(=O)NCc3ccco3)cc3c(=O)n4ccccc4nc32)cc1`: “inactive”; `CC1CCc2c(C(=O)Nc3nccs3)csc2C1` (configuration not stated): “inactive”.
Still for that read-out and setting: as for `Cc1cc([N+](=O)[O-])nn1CC(=O)NNC(=S)Nc1ccc([N+](=O)[O-])cc1`, the entry is “inactive”.
Regarding `COc1ccc(C2C(C#N)=C(N)N(c3sc4c(c3C#N)CCCC4)C3=C2C(=O)CC(C)(C)C3)cc1OC` (configuration not stated), the inhibition entry was “inactive”.
Consider `Cc1sc(NC(=O)c2sc3nc4c(C)cccc4cc3c2N)c(C#N)c1C`, for which the inhibition result was “inactive”.
On the same count and under the same terms, next, `CCOC(=O)Cc1csc(NC(=S)NC(=O)c2ccc(Cl)cc2)n1`: “inactive”; `CCC(C)n1c(C)nc2c(c1=O)c1nc3ccccc3nc1n2CCC1=CCCCC1` (configuration not stated): “inactive”.
For the compound `CNC(=S)NNC(=O)c1cccn(Cc2ccc(Cl)c(Cl)c2)c1=O`, the inhibition entry was “inactive”.
On the same count and under the same terms, next, `O=C(COc1ccccc1C(=O)N/N=C\c1ccc(O)c(O)c1)N/N=C/c1ccc(O)c(O)c1`: “inactive”; `Nc1nnnn1/N=C/c1ccccc1C(F)(F)F`: “inactive”; `O=C(Nc1ccc(-c2nc3ccc(NC(=O)c4cccs4)cc3[nH]2)cc1)c1cccs1`: “inactive”.
Same read-out and setting: next, `CC(=O)Nc1ccc(NC(=O)c2ccccc2CC[N+](=O)[O-])cc1`: “inactive”; `Cc1ccc(CNC(=O)c2ccccc2N)cc1`: “inactive”.
The same measure, in the same setting: as for `Cc1cc(SCC(=O)N/N=C/c2ccc(O)c(O)c2O)c(C)cc1Br`, the entry is “inactive”.
For the compound `CCOC(=O)c1c(N2C(=O)Nc3cc(Cl)c(Cl)cc3N2O)sc2c1CCCCC2`, the inhibition result is “inactive”.
The same measure, in the same setting: next, `CCN(CC(=O)NC(=O)NC1CCCCC1)Cc1nc2ccccc2c(=O)[nH]1`: “inactive”; `CC(OC(=O)c1ccco1)C(=O)NC1CCCCC1` (configuration not stated): “inactive”.
As for `CCNC(=S)NNC(=O)c1cccn(Cc2ccc(Cl)cc2)c1=O`, the inhibition entry is “inactive”.
In the case of `Cc1ccc(CSC2=Nc3ccccc3C3=NC(CC(=O)NCc4ccco4)C(=O)N23)cc1` (configuration not stated), the inhibition entry was “inactive”.
Still for that read-out and setting: next, `Cc1nn(-c2ccccc2)c(C)c1/C=N/NC(=O)c1cc(C23CC4CC(CC(C4)C2)C3)[nH]n1`: “inactive”; `Cc1cccc(N(C(=O)c2ccc(Cl)cc2)C2CS(=O)(=O)CC2OC(=O)c2ccc(Cl)cc2)c1` (configuration not stated): “inactive”.
The same measure, in the same setting: next, `O=C(Nc1nc(-c2ccccn2)cs1)c1ncc(Cl)c(Cl)c1Cl`: “inactive”.
The same measure, in the same setting: next, `Cc1ccc(C)c(OCC(=O)N/N=C/c2c(C)nn(-c3ccccc3)c2Cl)c1`: “inactive”.
Turning to `Cc1nc2c(c(=O)n1CCC1=CCCCC1)c1nc3ccccc3nc1n2/N=C/c1ccccc1`, the inhibition result is “inactive”.
Same read-out and setting: next, `CCOc1ccc(N(CC(=O)Nc2ccccc2C(=O)NCc2ccco2)S(C)(=O)=O)cc1`: “inactive”.
Consider `CN(C)/C=C/C(=O)c1ccc(F)cc1`, for which the inhibition result was “inactive”.
Still for that read-out and setting: as for `O=C(N/N=C/C=C/c1ccccc1)c1cc2c(ccc3ccccc32)o1`, the entry is “inactive”; as for `Cc1ccc(NC(=O)CN2C(=O)S/C(=C/c3ccc(-c4cc(C(=O)O)ccc4C)o3)C2=O)cc1C`, “inactive”; as for `COc1ccc2cc3cc(C(=O)N4CCN(Cc5ccc6c(c5)OCO6)CC4)oc3nc2c1`, “inactive”.
On to `Cc1cc(C)n2nc(SCc3cc(=O)oc4cc(O)ccc34)nc2n1`, for which the inhibition entry is “inactive”.
Same read-out and setting: next, `c1ccc(-c2ccc(C3=Nn4c(nnc4-c4cc(-c5ccccc5)n[nH]4)SC3)cc2)cc1`: “inactive”.
Same read-out and setting: next, `C(=C/c1ccnc2nc(SC/C=C/c3ccccc3)nn12)/c1ccccc1`: “inactive”; `Cc1ccc(NC(=O)CN2C(=O)S/C(=C\c3ccc(-c4cccc(C(=O)O)c4C)o3)C2=O)cc1`: “inactive”.
Consider `O=C(CSc1nc2ccccc2c2nc3ccccc3n12)NCc1ccco1`, for which the inhibition result was “inactive”.
The same measure, in the same setting: next, `Nc1c(C(=O)NCc2ccco2)c2nc3ccccc3nc2n1CCc1ccccc1F`: “inactive”; `CC(=O)Nc1cccc(NC(=O)CCn2cnc3cc(C)c(C)cc32)c1`: “inactive”; `CCCNc1cc(=O)n(C)c(=O)n1C`: “inactive”.
On the same count and under the same terms, as for `COCCCNC(=O)c1cccn2c(=O)c3cc4ccccc4cc3nc12`, the entry is “inactive”; as for `O=C(NNC(=O)c1cc2cc3ccccc3nc2s1)c1cccc(Cl)c1`, “inactive”; as for `COc1ccc(-n2nnnc2SCC(=O)c2ccc(O)c(O)c2)cc1`, “inactive”.
Still for that read-out and setting: next, `COc1cc(OC)cc(C(=O)Nc2ccccc2C(=O)N2CCCC2)c1`: “inactive”.
For the compound `COc1ccc(C(=O)c2sc3nc(-c4ccccc4)ccc3c2N)cc1OC`, the inhibition result was “inactive”.
Still for that read-out and setting: as for `O=C(Cn1cnc2ccccc21)Nc1ccc(C(=O)O)cc1`, the entry is “inactive”; as for `Brc1ccc2nc(CSc3ncn[nH]3)cn2c1`, “inactive”; as for `C=CCNC(=S)NNC(=O)c1cccn(Cc2ccc(Cl)c(Cl)c2)c1=O`, “inactive”.
Regarding `Cc1ccc(-c2nc3ccccc3[nH]2)cc1NC(=O)c1sc2ccccc2c1Cl`, the inhibition entry was “inactive”.
The same measure, in the same setting: next, `COc1c(N2CCN(C(=S)NCc3ccccc3)C(C)C2)c(F)cc2c(=O)c(C(=O)O)cn(C3CC3)c12` (configuration not stated): “inactive”; `Cc1ccc(C(=O)NNC(=O)CSc2nnc3c(n2)[nH]c2ccc(F)cc23)cc1`: “inactive”.
The same measure, in the same setting: as for `O=C(CCN1C(=O)c2ccccc2C1=O)Oc1ccc2ccccc2c1`, the entry is “inactive”; as for `O=[N+]([O-])c1ccc(N2CCN(S(=O)(=O)c3ccc(Cl)cc3)CC2)cc1NCc1cccnc1`, “inactive”.
Same read-out and setting: next, `O=C(NC(C(=O)N/N=C/c1ccccc1)c1n[nH]c(=O)c2ccccc12)c1ccccc1` (configuration not stated): “inactive”.
As for `CC(=O)Nc1nonc1NC(=O)c1ccc(C(C)(C)C)cc1`, the inhibition entry is “inactive”.
Consider `CCc1ccc2nc(NC(=O)c3ccc4c(=O)[nH]c(CN5CCOCC5)nc4c3)sc2c1`, for which the inhibition entry was “inactive”.
Consider `CC1CCc2c(sc(NC(=O)c3ccc(Cn4cc([N+](=O)[O-])cn4)o3)c2C#N)C1` (configuration not stated), for which the inhibition entry is “inactive”.
Still for that read-out and setting: next, `CCCCCCc1cc2cc(-c3nnc(-c4ccccc4OC)o3)c(=O)oc2cc1O`: “inactive”; `Cc1cc2c(cc1C)N(C(=O)CSC1=NCCS1)C(C)(C)c1ssc(=S)c1-2`: “inactive”; `Cc1ccc(-c2nnc(CSc3nnc(COc4cccc5ccccc45)n3-c3ccccc3)o2)cc1`: “inactive”.
For the compound `O=C1NC(=O)C(=Cc2cn(CCOc3ccc4c(c3)OCO4)c3ccccc23)C(=O)N1`, the inhibition result is “inactive”.
Same read-out and setting: next, `COc1ccc(S(=O)(=O)Nc2ccc(S(=O)(=O)N3CCCCC3)cc2)cc1`: “inactive”; `CC(C)(C)c1cc(NCCCn2ccnc2)n2ncc(-c3ccc(Cl)cc3)c2n1`: “inactive”; `CN(C)c1ccc(/C=N/N=C2/NC(=O)/C(=C/c3ccc([N+](=O)[O-])cc3)S2)cc1`: “inactive”.

The record behind these values is PubChem BioAssay AID1253 (Columbia University Molecular Screening Center, 2008).
